Reference: paper PMC9386376, “Discovery of spirooxindole-derived small-molecule compounds as novel HDAC/MDM2 dual inhibitors and investigation of their anticancer activity” (Frontiers in Oncology, 2022)

Columns and labels:
GST-tagged MDM2 = target: T1, GST-tagged MDM2 (Homo sapiens, UniProt Q00987); assay: HTRF enzyme inhibition assay, MDM2; format: biochemical; settings: compound at 1 μM
T1 construct: purchased Cisbio Co. Ltd
Experimental: The enzymatic assay of test compounds is using the HTRF-based method provided by Cisbio Co. Ltd. In brief, the target compounds to be tested were prepared into samples with a concentration of 1 μM, which was added to GST-tagged MDM2 and HDAC1 proteins, respectively, then biotinylated substrate p53 peptide and HTRF detection reagents were added. The data obtained were processed by the ratio method, and the inhibition rates of MDM2 and HDAC1 were calculated. The detailed experimental procedures are according to the manufacturer’s protocols.

HDAC1 = HDAC1 (Homo sapiens, UniProt Q13547); assay: HTRF enzyme inhibition assay, HDAC1; settings: for inhibition at 1 µM: read-out: % enzyme inhibition HDAC; for % enzyme inhibition HDAC: compound at 1 μM, HTRF, method names HDAC1 protein
Sequence of HDAC1 (Q13547 whole entry): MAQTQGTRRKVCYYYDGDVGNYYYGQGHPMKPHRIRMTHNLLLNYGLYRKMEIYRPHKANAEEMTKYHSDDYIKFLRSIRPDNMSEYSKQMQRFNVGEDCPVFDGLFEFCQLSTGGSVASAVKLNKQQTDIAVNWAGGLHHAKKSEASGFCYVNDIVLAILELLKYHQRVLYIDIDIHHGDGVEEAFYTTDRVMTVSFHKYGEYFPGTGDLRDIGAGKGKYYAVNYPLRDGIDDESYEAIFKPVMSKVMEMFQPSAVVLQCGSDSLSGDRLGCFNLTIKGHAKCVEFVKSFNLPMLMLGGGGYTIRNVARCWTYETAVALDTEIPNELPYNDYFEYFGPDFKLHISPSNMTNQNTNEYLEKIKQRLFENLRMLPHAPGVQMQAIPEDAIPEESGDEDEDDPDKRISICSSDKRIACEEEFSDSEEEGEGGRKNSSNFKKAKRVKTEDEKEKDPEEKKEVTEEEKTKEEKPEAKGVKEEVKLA

T1 sequence (Q00987 whole entry): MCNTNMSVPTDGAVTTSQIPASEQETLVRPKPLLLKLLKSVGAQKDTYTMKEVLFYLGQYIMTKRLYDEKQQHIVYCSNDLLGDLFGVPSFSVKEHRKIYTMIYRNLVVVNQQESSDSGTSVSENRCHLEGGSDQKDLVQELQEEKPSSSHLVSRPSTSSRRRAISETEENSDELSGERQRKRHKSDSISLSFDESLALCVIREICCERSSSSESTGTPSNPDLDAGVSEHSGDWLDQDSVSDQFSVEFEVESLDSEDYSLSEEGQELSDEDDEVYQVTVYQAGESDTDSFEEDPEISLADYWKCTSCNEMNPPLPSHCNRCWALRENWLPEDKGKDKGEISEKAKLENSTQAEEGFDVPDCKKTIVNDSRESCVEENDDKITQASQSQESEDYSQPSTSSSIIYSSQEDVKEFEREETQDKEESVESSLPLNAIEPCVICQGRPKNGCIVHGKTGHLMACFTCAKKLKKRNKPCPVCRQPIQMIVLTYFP

For `O=C(CCCCCCC(=O)Nc1ccc([C@@H]2[C@H]3CSCN3[C@]3(C(=O)Nc4ccccc43)[C@H]2C(=O)c2ccccc2)cc1)NO` [7a, N^1-(4-((3R,6'S,7'R,7a'S)-6'-benzoyl-2-oxo-1',6',7',7a'-tetrahydro-3'H-spiro[indoline-3,5'-pyrrolo[1,2-c]thiazol]-7'-yl)phenyl)-N^8-hydroxyoctanediamide], which inhibition at 1 µM (GST-tagged MDM2) is on record?
Its inhibition at 1 µM is 39%.

What about the inhibition at 1 µM (HDAC1) of the same compound?
Its inhibition at 1 µM is 69%.

And the melting point?
Its melting point is 144.7 to 146.1 °C.

For `Cc1ccc2c(c1)[C@@]1(C(=O)N2)[C@@H](C(=O)c2ccccc2)[C@H](c2ccc(NC(=O)CCCCCCC(=O)NO)cc2)[C@H]2CSCN21` [7b, N^1-(4-((3R,6'S,7'R,7a'S)-6'-benzoyl-5-methyl-2-oxo-1',6',7',7a'-tetrahydro-3'H-spiro[indoline-3,5'-pyrrolo[1,2-c]thiazol]-7'-yl)phenyl)-N^8-hydroxyoctanediamide], which inhibition at 1 µM (GST-tagged MDM2) is on record?
The inhibition at 1 µM was 45%.

And the inhibition at 1 µM (HDAC1)?
The inhibition at 1 µM was 71%.

And the melting point?
Its melting point is 144.2 to 145.6 °C.

Which results are given for `O=C(CCCCCCC(=O)Nc1ccc([C@@H]2[C@H]3CSCN3[C@]3(C(=O)Nc4ccc(F)cc43)[C@H]2C(=O)c2ccccc2)cc1)NO` [7c, N^1-(4-((3R,6'S,7'R,7a'S)-6'-benzoyl-5-fluoro-2-oxo-1',6',7',7a'-tetrahydro-3'H-spiro[indoline-3,5'-pyrrolo[1,2-c]thiazol]-7'-yl)phenyl)-N^8-hydroxyoctanediamide]?
inhibition at 1 µM (GST-tagged MDM2): 51%; inhibition at 1 µM (HDAC1): 68%; melting point: 144.3 to 145.7 °C

Which inhibition at 1 µM (GST-tagged MDM2) does the source give for `O=C(CCCCCCC(=O)Nc1ccc([C@@H]2[C@H]3CSCN3[C@]3(C(=O)Nc4ccc(Cl)cc43)[C@H]2C(=O)c2ccccc2)cc1)NO` [7d, N^1-(4-((3R,6'S,7'R,7a'S)-6'-benzoyl-5-chloro-2-oxo-1',6',7',7a'-tetrahydro-3'H-spiro[indoline-3,5'-pyrrolo[1,2-c]thiazol]-7'-yl)phenyl)-N^8-hydroxyoctanediamide] here?
The inhibition at 1 µM was 49%.

What about the inhibition at 1 µM (HDAC1) of the same compound?
The inhibition at 1 µM was 67%.

What about the melting point of the same compound?
The melting point was 154.6 to 156.2 °C.

Which results are given for `O=C(CCCCCCC(=O)Nc1ccc([C@@H]2[C@H]3CSCN3[C@]3(C(=O)Nc4ccc(Br)cc43)[C@H]2C(=O)c2ccccc2)cc1)NO` [7e, N^1-(4-((3R,6'S,7'R,7a'S)-6'-benzoyl-5-bromo-2-oxo-1',6',7',7a'-tetrahydro-3'H-spiro[indoline-3,5'-pyrrolo[1,2-c]thiazol]-7'-yl)phenyl)-N^8-hydroxyoctanediamide]?
inhibition at 1 µM (GST-tagged MDM2): 48%; inhibition at 1 µM (HDAC1): 72%; melting point: 146.8 to 148 °C

What does the source list for `COc1ccc2c(c1)NC(=O)[C@@]21[C@@H](C(=O)c2ccccc2)[C@H](c2ccc(NC(=O)CCCCCCC(=O)NO)cc2)[C@H]2CSCN21` [7k, N^1-(4-((3R,6'S,7'R,7a'S)-6'-benzoyl-6-methoxy-2-oxo-1',6',7',7a'-tetrahydro-3'H-spiro[indoline-3,5'-pyrrolo[1,2-c]thiazol]-7'-yl)phenyl)-N^8-hydroxyoctanediamide]?
inhibition at 1 µM (GST-tagged MDM2): 54%; inhibition at 1 µM (HDAC1): 70%

With “N^1-(4-((3R,6'S,7'R,7a'S)-6-chloro-2-oxo-6'-(thiophene-2-carbonyl)-1',6',7',7a'-tetrahydro-3'H-spiro[indoline-3,5'-pyrrolo[1,2-c]thiazol]-7'-yl)phenyl)-N^6-hydroxyadipamide [15c]” as the compound, how does the “% enzyme inhibition MDM2” value (GST-tagged MDM2) read?
The value was 49%.

And the “% enzyme inhibition HDAC” value (HDAC1)?
The value was 70%.

Which “% enzyme inhibition MDM2” value (GST-tagged MDM2) does the source give for “N^1-(4-((3R,6'S,7'R,7a'S)-6-chloro-6'-(4-(dimethylamino)benzoyl)-2-oxo-1',6',7',7a'-tetrahydro-3'H-spiro[indoline-3,5'-pyrrolo[1,2-c]thiazol]-7'-yl)phenyl)-N^6-hydroxyadipamide [7y]” here?
Its value is 54%.

What about the “% enzyme inhibition HDAC” value (HDAC1) of the same compound?
The value was 71%.

With “N^1-(4-((3R,6'S,7'R,7a'S)-6-chloro-6'-(furan-2-carbonyl)-2-oxo-1',6',7',7a'-tetrahydro-3'H-spiro[indoline-3,5'-pyrrolo[1,2-c]thiazol]-7'-yl)phenyl)-N^6-hydroxyadipamide [15b]” as the compound, how does the “% enzyme inhibition MDM2” value (GST-tagged MDM2) read?
Its value is 48%.

What about the “% enzyme inhibition HDAC” value (HDAC1) of the same compound?
Its value is 70%.
